Bounds are passed on as bounds.

From article PMC6542369 (Bioorganic & medicinal chemistry letters, 2017) come the findings set out here.

Assay [1] has as its target T1, hM4 (Homo sapiens, UniProt P08173).
T1 sequence (P08173 1-479): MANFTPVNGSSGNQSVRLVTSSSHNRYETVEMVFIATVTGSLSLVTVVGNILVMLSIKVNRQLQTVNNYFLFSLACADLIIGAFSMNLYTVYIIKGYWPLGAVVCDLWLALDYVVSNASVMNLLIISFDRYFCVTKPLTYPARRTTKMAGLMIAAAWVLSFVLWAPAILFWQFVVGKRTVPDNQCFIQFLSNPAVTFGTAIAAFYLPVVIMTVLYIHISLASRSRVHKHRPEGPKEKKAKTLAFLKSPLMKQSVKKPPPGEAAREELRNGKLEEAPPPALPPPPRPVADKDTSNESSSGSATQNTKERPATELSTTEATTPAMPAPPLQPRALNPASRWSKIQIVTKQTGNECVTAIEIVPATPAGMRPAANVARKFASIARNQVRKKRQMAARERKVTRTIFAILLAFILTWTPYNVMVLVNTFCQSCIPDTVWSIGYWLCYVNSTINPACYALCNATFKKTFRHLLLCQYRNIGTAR
The class given is cell-based. Conditions: for loss of potency (fold): hM4 potency relative to 10a; for hM4 activity: replacement of the fluorine with other halogens.

The target in assay [2] is T2, hM2 (Homo sapiens, UniProt P08172).
T2 sequence (P08172 1-466): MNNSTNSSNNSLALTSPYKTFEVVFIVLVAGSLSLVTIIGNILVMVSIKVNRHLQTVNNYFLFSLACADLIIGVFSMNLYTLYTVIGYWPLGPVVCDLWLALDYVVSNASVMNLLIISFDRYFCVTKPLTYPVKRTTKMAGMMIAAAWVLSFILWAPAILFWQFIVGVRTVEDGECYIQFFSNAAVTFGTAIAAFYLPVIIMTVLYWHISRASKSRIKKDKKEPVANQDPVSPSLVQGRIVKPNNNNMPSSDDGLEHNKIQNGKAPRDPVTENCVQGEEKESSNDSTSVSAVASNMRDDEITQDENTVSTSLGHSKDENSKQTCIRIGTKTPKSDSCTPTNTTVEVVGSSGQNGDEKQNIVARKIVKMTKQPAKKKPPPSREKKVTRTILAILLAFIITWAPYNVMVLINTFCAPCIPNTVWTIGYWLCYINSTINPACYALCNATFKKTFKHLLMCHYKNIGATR
Description: mAChR subtype selectivity / counter screen, hM2. The class given is cell-based.

In the case of `COC1(c2cccc(F)c2)CN(C(=O)c2sc3nnc(C)c(C)c3c2N)C1` [Compound 11b], in assay [1], the “loss of potency (fold)” value is on record as ~ 6 fold.
For `COc1ccc(C2CN(C(=O)c3sc4nnc(C)c(C)c4c3N)C2)cc1` [Compound 10i], in assay [1], the “loss of potency (fold)” value is ~ 3.5 fold.
On to `Cc1nnc2sc(C(=O)N3CC(O)(c4ccccc4)C3)c(N)c2c1C` [Compound 11a], for which the “loss of potency (fold)” value in assay [1] is recorded as ~ 10 fold.
`Cc1nnc2sc(C(=O)N3CC(c4ccc(F)cc4)C3)c(N)c2c1C` [Compound 10l]: the “activity at hM2” value in assay [2] was “inactive”.
With `COc1cccc(C2CN(C(=O)c3sc4nnc(C)c(C)c4c3N)C2)c1` [Compound 10h], in assay [1], the “loss of potency (fold)” value is on record as greater than 100 fold.
In the case of `Cc1nnc2sc(C(=O)N3CC(c4ccc(Cl)cc4)C3)c(N)c2c1C` [Compound 10m], the hM4 activity result in assay [1] is listed as “complete loss of hM4 activity”.
The same measure, in the same setting: the result for `Cc1nnc2sc(C(=O)N3CC(c4ccc(Br)cc4)C3)c(N)c2c1C` [Compound 10n] reads “complete loss of hM4 activity”.
